Laboratory results from US20220009976A1, “Peptide Possessing Mesenchymal-Stem-Cell Mobilizing Activity” (StemRIM Inc., priority 2018, published 2022).

Tests used:
[1] = system: inflammatory bowel disease (IBD) model mice; test: Efficacy in DSS-induced inflammatory bowel disease (IBD) model mice; type: in vivo, BALB/c mice
Procedure: Dextran sodium sulfate (DSS) (molecular weight 36,000 to 50,000, manufactured by MP Biomedicals, Product No. 160110) was dissolved in purified water to prepare a 2.5% (w/v) DSS aqueous solution. In addition, the peptide 1r10 (TFA salt) described in Example 1 was used as the test substance.
BALB/c mice (9 weeks old, male) were allowed to drink the 2.5% DSS aqueous solution freely for 7 days to induce colitis. After that, the drinking was changed from DSS to tap water, and the large intestine was collected 3 days later (10 days after the start of drinking the DSS aqueous solution).
The IBD model mice prepared as described above were divided into the peptide 1r10 administration group (n=8) and the control group (n=8). Peptide administration was carried out by injecting into the tail vein, the peptide 1r10 solution adjusted to a concentration of 0.5 mg/mL using physiological saline as a solvent at an amount of 10 mL/kg on Days 1, 4, 7, 8 and 9 after the start of drinking the DSS aqueous solution (peptide dose of 5 mg/kg). The control group was injected with physiological saline solution at a dose of 10 mL/kg into the tail vein on Days 1, 4, 7, 8 and 9 after the start of drinking the DSS aqueous solution.
For 10 days from the start of drinking the DSS aqueous solution, the mice were weighed and observed for the symptoms (stool condition and bleeding) every day except Saturdays, Sundays, and holidays, and the degree of symptoms was evaluated by calculating the DAI (disease activity index) score. The DAI score was calculated by scoring the weight loss rate, stool condition, and stool bleeding as shown in the table below, and summing the scores of these three items. The scoring criteria were partly based on the method of Li et al. (PLoS One. 2015 Dec. 7; 10 (12): e0144101).
In addition, the length of the large intestine (from the colon to the rectum) collected 10 days after the start of drinking DSS was measured using a digital caliper.

[2] = system: cerebral infarction model rat; test: Efficacy in cerebral infarction model rat (right MCA occlusion); type: in vivo, Crl:CD (SD) rats; settings: 2 mg/kg tail vein at 105 minutes and 24 hours after right MCA occlusion; 48 hours after occlusion; p<0.01 vs control 34.1±1.1%
Excerpt: Crl:CD (SD) rats (7 weeks old, male) were obtained from Charles River Laboratories, Japan, and after 6 days of acclimation, they were divided into the control group (n=8) and the peptide-administered group (n=8). On the following day of grouping, the rats were fixed in the supine position under 2% isoflurane inhalation anesthesia (anesthesia background: laughing gas:oxygen=7:3). To regulate body temperature during surgery, a thermometer probe connected to a digital thermometer was inserted into the rectum, and changes in the rectal temperature before and after surgery were monitored. […]
Forty-eight hours after the right MCA occlusion, the animals were decapitated under anesthesia with sodium pentobarbital (50 mg/kg, intraperitoneal administration), and the entire brain was excised to prepare brain sections with a thickness of 2 mm. […] The resulting photographs were subjected to image analysis to obtain actual measurements of the cerebral infarction area and cross-sectional area of the brain, and the cerebral infarct volume and the total brain volume from 4 mm anterior to bregma to 6 mm posterior to bregma were calculated using the calculation formula below. In addition, the cerebral infarction volume ratio was calculated from the cerebral infarction volume and the total volume of the brain (cerebral infarction volume ratio (%)=cerebral infarction volume/total brain volume×100).

[3] = 5 mg/kg tail vein, 8 to 10 days after the start of drinking DSS, vs control group

peptide 1r10: artificial sequence peptide consisting of the amino acid sequence of SEQ ID NO: 1, chemically synthesized (IMWLCQYFFQCHKCAVKKKTWKEKKDRRHP)
body weight 10 days after the start of drinking the DSS aqueous solution ([1]; 5 mg/kg tail vein on Days 1, 4, 7, 8 and 9, Day 10): tendency to recover body weight | changes in mouse body weight (degree of decrease) ([1]; 5 mg/kg tail vein on Days 1, 4, 7, 8 and 9 after start of drinking DSS, vs control group (saline)): slower | DAI (disease activity index) score [1, 3]: lower | stool score (sum of stool condition score and bleeding score) [1, 3]: lower | colon length ([1]; 5 mg/kg tail vein, ten days after the start of drinking DSS, vs control group): longer | cerebral infarction volume ratio (mean±standard error) [2]: 27.2±1.2%
